From PMC8568133, “Evaluation of bisphenylthiazoles as a promising class for combating multidrug-resistant fungal infections” (PLoS ONE, 2021)
Converted amounts (≈) assume the structure as drawn. Where two headings read alike, the source gives them in different places.

Assays:
MRSA USA300 = experiment: Broth microdilution MIC, initial antibacterial screening; type: cell-based, S. aureus
Method: (§1) The minimum inhibitory concentrations (MICs) of the tested compounds and control drugs against clinically-relevant bacterial strains were determined using the broth microdilution method, according to guidelines outlined by the Clinical and Laboratory Standards Institute (CLSI), or as described previously.
(§2) Initial screening of the bisphenylthiazoles against Gram-positive and Gram-negative bacteria. Bacterial strains, (except C. difficile that was grown anaerobically on brain heart infusion supplemented agar at 37° C for 48 hours), were grown aerobically overnight on tryptone soy agar plates at 37° C. Afterwards, a bacterial solution equivalent to 0.5 McFarland standard was prepared and diluted in cation-adjusted Mueller-Hinton broth (CAMHB) (for S. aureus, and E. coli) to achieve a bacterial concentration of about 5 × 10^5 CFU/mL. C. difficile was diluted in brain heart infusion supplemented broth, supplemented with yeast extract, hemin and vitamin K to achieve a bacterial concentration of about 5 × 10^5 CFU/mL. Compounds and control drugs were added in the first row of the 96 -well plates, and serially diluted with the corresponding media containing bacteria. Plates were then, incubated aerobi cally at 37° C for 18-20 hours (for S. aureus and E. coli). C. difficile was incubated anaerobically at 37° C for 48 hours. […]
(§3) the visual growth of bacteria.

[1] = test system: C. difficile ATCC BAA1870; experiment: Broth microdilution MIC, initial antibacterial screening (anaerobic); type: cell-based, Clostridioides difficile
Method: as §1, §2, §3

[2] = test system: E. coli JW55031 (tolC-mutant); experiment: microbe, parasite or virus in culture; type: cell-based, Escherichia coli
Method: as §1, §2, §3

[3] = test system: E. coli BW25113 (wild-type); experiment: Broth microdilution MIC, initial antibacterial screening; type: cell-based, Escherichia coli
Method: as §1, §2, §3

Candida albicans = experiment: Antifungal broth microdilution MIC (50% growth inhibition) and MFC; type: cell-based
Method: (§4) Serial dilutions (from 128 μg/mL to 0.06 μg/mL) of the tested compounds and control drugs (fluconazole, itraconazole and amphotericin) (in triplicates), were screened against clinical isolates of Candida albicans, Candida auris, Candida glabrata, Candida parapsilosis, Candida tropicalis, Candida krusei, Cryptococcus neoformans, Cryptococcus gattii and Aspergillus fumigatus species using the broth microdilution method according to the Clinical and Laboratory Standards Institute guidelines. MICs were determined as the lowest concentration of the compounds that inhibited the fungal growth by 50% after incubation at 35 °C for 24 h (for Candida and Aspergillus), or 48 h (for Cryptococcus). The minimum fungicidal concentration (MFC) of these compounds was tested by plating 4 μL from wells with no growth onto YPD agar plates. The plates were incubated at 37 °C for 24 hours before recording the MFC, which was categorized as the lowest concentration that reduced fungal growth by 99.9% [45]. The experiment was repeated three independent times.

Aspergillus fumigatus = experiment: Antifungal broth microdilution MIC (50% growth inhibition); type: cell-based; details: Aspergillus fumigatus, read-out: MIC
Method: as §4

Candida auris = experiment: Checkerboard assay of compound 17 with standard antifungals; type: cell-based; details: for FICI (fractional inhibitory concentration index) / Interpretation of interaction: antifungal combined with compound 17; for MIC Combined, Antifungal: antifungal in combination with compound 17; for MIC: Candidozyma auris, checkerboard, agent alone
Method: To evaluate the interactions between bisphenylthiazoles and the standard antifungal agents (fluconazole, amphotericin B, 5-fluorocytosine and caspofungin) against 2 C. auris clinical isolates, a standard checkerboard assay was utilized as described in previous studies. The fractional inhibitory concentration index (FICI) was calculated for each interaction. Interactions where the FICI was ≤0.5 were categorized as synergistic (SYN). FICI values of >0.5–1.25 were categorized as additive (ADD). FICI values of >1.25–4 were categorized as indifferent, and FICI values of > 4 were categorized as antagonistic. The experiment was repeated three independent times.

Candida glabrata = experiment: Antifungal broth microdilution MIC (50% growth inhibition) and MFC; type: cell-based; details: Nakaseomyces glabratus
Method: as §4

Candida krusei = experiment: as above; type: cell-based; details: Pichia kudriavzevii, read-out: MIC
Method: as §4

Candida tropicalis = experiment: as above; type: cell-based; details: Candida tropicalis, ATCC1369
Method: as §4

Candida parapsilosis = experiment: Antifungal broth microdilution MIC (50% growth inhibition); type: cell-based; details: Lodderomyces parapsilosis, read-out: MIC
Method: as §4

[4] = Staphylococcus aureus, MRSA USA300, read-out: MIC
[5] = Clostridioides difficile, ATCCBAA1870, read-out: MIC
[6] = Escherichia coli, read-out: MIC
[7] = Candida albicans, C. albicans SS5314 (wild-type), read-out: MIC
[8] = Candida auris 381 (azole-sensitive)
[9] = Candida auris 385 (azole-resistant)

Structure (SMILES): Cc1nc(-c2ccc(-c3ccccc3)cc2)sc1-c1nnc(N2CCCCC2CN)o1 (stereo not shown) [Compound 15, {1-[5-(2-((1,1’-Biphenyl)-4-yl)-4-methylthiazol-5-yl)-1,3,4-oxadiazol-2-yl]piperidin-2-yl}methanamine]
- MIC (MRSA USA300; [4]): 16 µg/mL (≈ 37.1 µM)
- MIC [1, 5]: 16 µg/mL (≈ 37.1 µM)
- MIC ([2]; Escherichia coli): 16 µg/mL (≈ 37.1 µM)
- MIC [3, 6]: > 64 µg/mL
- MIC (Candida albicans; [7]): 16 µg/mL (≈ 37.1 µM)
- melting point: 225 to 227 °C

Structure (SMILES): Cc1nc(-c2ccc(-c3ccccc3)cc2)sc1-c1nnc(NCC(=N)N)o1 [Compound 9, 2-{[5-(2-((1,1’-biphenyl)-4-yl)-4-methylthiazol-5-yl)-1,3,4-oxadiazol-2-yl]amino} acetimidamide]
- MIC (MRSA USA300; MRSA USA300): >64 µg/mL
- MIC [1]: >64 µg/mL
- MIC ([2]; E. coli JW55031 (tolC-mutant)): >64 µg/mL
- MIC [3]: >64 µg/mL
- MIC (Candida albicans; C. albicans SS5314 (wild-type)): >64 µg/mL

Structure (SMILES): Cc1nc(-c2ccc(-c3ccccc3)cc2)sc1-c1nnc(NCCN(C)C)o1 [Compound 8, N-{5-[2-((1,1’-Biphenyl)-4-yl)-4-methylthiazol-5-yl]-1,3,4-oxadiazol-2-yl}-N,N-dimethylethane-1,2-diamine]
- MIC (MRSA USA300; MRSA USA300): 32 µg/mL (≈ 78.9 µM)
- MIC [1]: 16 µg/mL (≈ 39.5 µM)
- MIC ([2]; E. coli JW55031 (tolC-mutant)): 16 µg/mL (≈ 39.5 µM)
- MIC [3]: 64 µg/mL (≈ 158 µM)
- MIC (Candida albicans; C. albicans SS5314 (wild-type)): 16 µg/mL (≈ 39.5 µM)

Structure (SMILES): CNC(C)C1CCC(N)C(OC2C(N)CC(N)C(OC3OCC(C)(O)C(NC)C3O)C2O)O1 (stereo not shown) [Gentamicin, reference compound]
- MIC ([2]; Escherichia coli): ≤ 0.5 µg/mL
- MIC [3, 6]: ≤ 0.5 µg/mL

Structure (SMILES): Cc1nc(-c2ccc(-c3ccccc3)cc2)sc1-c1nnc(N2CC[C@H](N(C)C)C2)o1 [Compound 12, (S)-1-{5-[2-((1,1’-biphenyl)-4-yl)-4-methylthiazol-5-yl]-1,3,4-oxadiazol-2-yl}-N,N-dimethylpyrrolidin-3-amine]
- MIC (MRSA USA300; [4]): 16 µg/mL (≈ 37.1 µM)
- MIC [1, 5]: 32 µg/mL (≈ 74.1 µM)
- MIC ([2]; Escherichia coli): > 64 µg/mL
- MIC [3, 6]: > 64 µg/mL
- MIC (Candida albicans; [7]): 16 µg/mL (≈ 37.1 µM)
- melting point: 185 to 187 °C

Structure (SMILES): Cc1nc(-c2ccc(-c3ccccc3)cc2)sc1-c1nnc(N2CCC[C@@H]2C(N)=O)o1 [Compound 14, (R)-1-{5-[2-((1,1’-biphenyl)-4-yl)-4-methylthiazol-5-yl]-1,3,4-oxadiazol-2-yl}pyro-lidine-2-carboxamide]
- MIC (MRSA USA300; MRSA USA300): >64 µg/mL
- MIC [1]: 64 µg/mL (≈ 148 µM)
- MIC ([2]; E. coli JW55031 (tolC-mutant)): >64 µg/mL
- MIC [3]: >64 µg/mL
- MIC (Candida albicans; C. albicans SS5314 (wild-type)): >64 µg/mL

Structure (SMILES): CC(=O)NC[C@H]1CN(c2ccc(N3CCOCC3)c(F)c2)C(=O)O1 [Linezolid, reference compound]
- MIC (MRSA USA300; [4]): 1 µg/mL (≈ 2.96 µM)
- MIC [1, 5]: 1 µg/mL (≈ 2.96 µM)
- MIC ([2]; Escherichia coli): 8 µg/mL (≈ 23.7 µM)
- MIC [3, 6]: > 64 µg/mL

Structure (SMILES): CCC(C)n1ncn(-c2ccc(N3CCN(c4ccc(OCC5COC(Cn6cncn6)(c6ccc(Cl)cc6Cl)O5)cc4)CC3)cc2)c1=O (stereo not shown) [Itraconazole, reference compound]
- MIC (Aspergillus fumigatus; A. fumigatus NR 35303): 1 µg/mL (≈ 1.42 µM)
- MIC (Aspergillus fumigatus; A. fumigatus NR 35304): 1 µg/mL (≈ 1.42 µM)

Structure (SMILES): Nc1nc(=O)[nH]cc1F [5-Fluorocytosine]
- FICI (fractional inhibitory concentration index) (Candida auris; [8]): 1.250
- Interpretation of interaction (Candida auris; [8]): ADD (FICI values of >0.5–1.25 were categorized as additive (ADD))
- MIC Combined, Antifungal (Candida auris; [8]): 0.125 µg/mL
- FICI (fractional inhibitory concentration index) (Candida auris; [9]): 1.125
- Interpretation of interaction (Candida auris; [9]): ADD (FICI values of >0.5–1.25 were categorized as additive (ADD))
- MIC Combined, Antifungal (Candida auris; [9]): 0.25 µg/mL
- MIC (Candida auris; [8]): 0.125 µg/mL
- MIC (Candida auris; [9]): 0.25 µg/mL

Structure (SMILES): CC[C@H](C)C[C@H](C)CCCCCCCCC(=O)N[C@H]1C[C@@H](O)[C@@H](NCCN)NC(=O)[C@@H]2[C@@H](O)CCN2C(=O)[C@H]([C@H](O)CCN)NC(=O)[C@H]([C@H](O)[C@@H](O)c2ccc(O)cc2)NC(=O)[C@@H]2C[C@@H](O)CN2C(=O)[C@H]([C@@H](C)O)NC1=O [Caspofungin]
- MIC (Candida albicans; Candida albicans, ATCC10231): 0.125 µg/mL (≈ 0.114 µM)
- MIC (Candida albicans; Candida albicans, C. albicans NR-29448 (fluconazole-resistant), read-out: MIC): 0.25 µg/mL (≈ 0.229 µM)
- MIC (Candida glabrata): 0.125 µg/mL (≈ 0.114 µM)
- MIC (Candida glabrata; ATCC66032, C. glabrata ATCC 66032, read-out: MIC): 0.25 µg/mL (≈ 0.229 µM)
- MIC (Candida krusei; ATCC34135, C. krusei ATCC 34135): 0.5 µg/mL (≈ 0.457 µM)
- MIC (Candida krusei; C. krusei CAB 396420): 0.5 µg/mL (≈ 0.457 µM)
- MIC (Candida tropicalis): 0.125 µg/mL (≈ 0.114 µM)
- MIC (Candida parapsilosis; ATCC22019, C. parapsilosis ATCC 22019): 0.5 µg/mL (≈ 0.457 µM)
- MIC (Candida parapsilosis; C. parapsilosis CAB 502638): 0.5 µg/mL (≈ 0.457 µM)
- FICI (fractional inhibitory concentration index) (Candida auris; [8]): 1.250
- Interpretation of interaction (Candida auris; [8]): ADD (FICI values of >0.5–1.25 were categorized as additive (ADD))
- MIC Combined, Antifungal (Candida auris; [8]): 0.5 µg/mL
- FICI (fractional inhibitory concentration index) (Candida auris; [9]): 1.125
- Interpretation of interaction (Candida auris; [9]): ADD (FICI values of >0.5–1.25 were categorized as additive (ADD))
- MIC Combined, Antifungal (Candida auris; [9]): 0.063 µg/mL
- MIC (Candida auris; [8]): 0.5 µg/mL
- MIC (Candida auris; [9]): 0.063 µg/mL

Structure (SMILES): Cc1nc(-c2ccc(-c3ccccc3)cc2)sc1-c1nnc(N2CCC[C@H]2CO)o1 [Compound 20, (S)-{1-[5-(2-((1,1’-Biphenyl)-4-yl)-4-methylthiazol-5-yl)-1,3,4-oxadiazol-2-yl]pyro-lidin-2-yl}methanol]
- MIC (MRSA USA300; MRSA USA300): >64 µg/mL
- MIC [1]: 64 µg/mL (≈ 153 µM)
- MIC ([2]; E. coli JW55031 (tolC-mutant)): >64 µg/mL
- MIC [3]: >64 µg/mL
- MIC (Candida albicans; C. albicans SS5314 (wild-type)): >64 µg/mL

Structure (SMILES): Cc1nc(-c2ccc(-c3ccccc3)cc2)sc1-c1nnc(N2CCC[C@H]2C(N)=O)o1 [Compound 13, (S)-1-{5-[2-((1,1’-biphenyl)-4-yl)-4-methylthiazol-5-yl]-1,3,4-oxadiazol-2-yl}pyro-lidine-2-carboxamide]
- MIC (MRSA USA300; MRSA USA300): >64 µg/mL
- MIC [1]: >64 µg/mL
- MIC ([2]; E. coli JW55031 (tolC-mutant)): >64 µg/mL
- MIC [3]: >64 µg/mL
- MIC (Candida albicans; C. albicans SS5314 (wild-type)): >64 µg/mL

Structure (SMILES): Cc1nc(-c2ccc(-c3ccccc3)cc2)sc1-c1nnc(N2CCC[C@@H]2CO)o1 [Compound 21, (R)-{1-[5-(2-((1,1’-Biphenyl)-4-yl)-4-methylthiazol-5-yl)-1,3,4-oxadiazol-2-yl]pyro-lidin-2-yl}tmethanol]
- MIC (MRSA USA300; MRSA USA300): >64 µg/mL
- MIC [1]: >64 µg/mL
- MIC ([2]; E. coli JW55031 (tolC-mutant)): >64 µg/mL
- MIC [3]: >64 µg/mL
- MIC (Candida albicans; C. albicans SS5314 (wild-type)): >64 µg/mL

Structure (SMILES): CN[C@H](CC(C)C)C(=O)N[C@H]1C(=O)N[C@@H](CC(N)=O)C(=O)N[C@H]2C(=O)N[C@H]3C(=O)N[C@H](C(=O)N[C@H](C(=O)O)c4cc(O)cc(O)c4-c4cc3ccc4O)[C@H](O)c3ccc(c(Cl)c3)Oc3cc2cc(c3O[C@@H]2O[C@H](CO)[C@@H](O)[C@H](O)[C@H]2O[C@H]2C[C@](C)(N)[C@H](O)[C@H](C)O2)Oc2ccc(cc2Cl)[C@H]1O [Vancomycin, reference compound]
- MIC (MRSA USA300; Staphylococcus aureus): 1 µg/mL (≈ 0.69 µM)
